# Data published in PubChem BioAssay AID1648 (Sanford-Burnham Center for Chemical Genomics, 2009).
# Calls of active or inactive are those of the source. No rule for the calls is given here.
# Molecular target: Serine/threonine-protein kinase mTOR (Homo sapiens) (UniProt P42345)
# Assay: mTOR FRB domain ligand binding – biophysical, NMR (AID 1648)
# Settings: NMR binding to FRB domain, chemical shift
# Sequence of Serine/threonine-protein kinase mTOR (Homo sapiens) (P42345 2015-2114): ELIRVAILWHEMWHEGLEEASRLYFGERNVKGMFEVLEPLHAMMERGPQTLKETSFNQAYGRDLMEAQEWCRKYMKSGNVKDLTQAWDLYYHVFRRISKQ
row,SMILES,Kd
1,C[C@@H]1O[C@@H](O[C@H]2C[C@@H](O)[C@]3(CO)C4C(CC[C@]3(O)C2)[C@@]2(O)CC[C@H](C3=CC(=O)OC3)[C@@]2(C)C[C@H]4O)[C@H](O)[C@H](O)[C@H]1O (some centres undefined),> 4 mM (inactive)
2,N[C@@H](C(=O)O)[C@@H](O)[C@H](O)[C@H](O)CO,> 4 mM (inactive)
3,CC(=O)c1cc(C)ccc1O,> 4 mM (inactive)
4,c1ccc(-n2ncc3c(NCc4ccco4)ncnc32)cc1,> 4 mM (inactive)
5,CN1CCn2c1nc(N1CCOCC1)nc2=O,> 4 mM (inactive)
6,O=C(c1ccccc1)c1ccccc1C(=O)N1CCOCC1,> 4 mM (inactive)
7,O=C1NC(=S)N/C1=C/c1ccsc1,> 4 mM (inactive)
8,Cc1cc(NS(=O)(=O)Cc2ccccc2)no1,> 4 mM (inactive)
9,Cc1cc(OC(=O)c2ccco2)c([N+](=O)[O-])c(=O)[nH]1,> 4 mM (inactive)
10,Cc1cc(C(=O)Nc2cccnc2)no1,> 4 mM (inactive)
11,COC(=O)C[C@H]1C2(C)CC34OC5(C)O[C@@]6([C@H](OC)C(OC(=O)C(C)C)[C@]7(C)C(/C(=C(/OC)C(C)C)C(=O)O[C@H]7c7ccoc7)[C@@]6(O5)[C@H](OC)[C@@]3(OC)C2OC(C)=O)[C@]14C (some centres undefined),> 4 mM (inactive)
12,O=C(O)CCC(=O)Nc1nccs1,> 4 mM (inactive)
13,O=c1[nH]c(O)c(C=NC2CC2)c(=O)[nH]1,> 4 mM (inactive)
14,Cc1cc(C(=O)Nc2sc(C)c(C)c2C#N)c(C)o1,> 4 mM (inactive)
15,O=C1NC(=S)NC(=O)C1=Cc1ccco1,> 4 mM (inactive)
16,O=C(NCc1ccco1)c1cccc(F)c1,> 4 mM (inactive)
17,O=CN1CCN(C(=O)c2ccc(F)cc2)CC1,> 4 mM (inactive)
18,COc1ccc2c(c1)[nH]c1c(C)nccc12,> 4 mM (inactive)
19,COC(=O)C[C@H]1C(C)(C)C(OC(C)=O)[C@]2(O)C=C3C(CC[C@]4(C)C3CC(=O)O[C@H]4c3ccoc3)C1(C)C2=O (some centres undefined),> 4 mM (inactive)
20,NCc1ccc2c(c1)OCCO2,> 4 mM (inactive)

row,SMILES,Kd
1,COC(=O)[C@@]1(C)CCC[C@]2(C)c3ccc(O)c(C(C)C)c3CCC12 (some centres undefined),> 4 mM (inactive)
2,COc1ccc(/C=C2/NC(=S)NC2=O)cc1,> 4 mM (inactive)
3,O=S(=O)(c1cccc(Cl)c1)N1CCCC1,> 4 mM (inactive)
4,CCN1CCC(=NO)CC1,> 4 mM (inactive)
5,O=C(Nc1ccon1)c1sc2cc(F)ccc2c1Cl,> 4 mM (inactive)
6,CC1(C)C(=O)C=C[C@@]2(C)C1CC(=O)[C@]1(C)C2CC[C@@]2(C)[C@H](c3ccoc3)OC(=O)[C@H]3O[C@]321 (some centres undefined),> 4 mM (inactive)
7,CC(=O)Nc1cccc(-c2nnc3n2CC(C)S3)c1 (centres undefined),> 4 mM (inactive)
8,COC(=O)C[C@@H]1C2(C)C(=O)[C@@H](CC3C2CC[C@]2(C)C3CC(=O)O[C@H]2c2ccoc2)[C@H](OC(C)=O)C1(C)C (some centres undefined),> 4 mM (inactive)
9,COc1cccc(=O)c2c(C)n(C)c(C)c12,> 4 mM (inactive)
10,Cc1ccc(C(=O)N2CC(=O)NC(=O)C2)cc1,> 4 mM (inactive)
11,CC(=O)c1c(C)nc(-c2ccc(Cl)cc2Cl)n1O,> 4 mM (inactive)
12,OCC1CCCN2CCCCC12 (centres undefined),> 4 mM (inactive)
13,NC1=NC(=O)/C(=C/c2cccs2)S1,> 4 mM (inactive)
14,Cc1n[nH]c(C)c1CN,> 4 mM (inactive)
15,CCC(=O)Nc1cccc(NC(C)=O)c1,> 4 mM (inactive)
16,O=C(O)c1ccccc1N1CCOCC1,> 4 mM (inactive)
17,NC(=O)c1ccc(Cl)c(N2C(=O)CCC2=O)c1,> 4 mM (inactive)
18,CN(C)C(=O)CSc1nc2ccccc2c(=O)[nH]1,> 4 mM (inactive)
19,O=C1N/C(=N\c2ccccn2)SC1Cc1ccccc1 (centres undefined),> 4 mM (inactive)
20,CSc1nn(-c2ccccc2)c(N)c1C#N,> 4 mM (inactive)

row,SMILES,Kd
1,C=C1C[C@]23C[C@@]1(O)CC[C@H]2[C@@]12C=C[C@H](O)C(C)(C(=O)O1)[C@H]2[C@@H]3C(=O)O,> 4 mM (inactive)
2,Nc1nnc(SCc2ccc(F)cc2Cl)s1,> 4 mM (inactive)
3,NCc1cc2ccccc2s1,> 4 mM (inactive)
4,O=C1CCNc2ccccc2N1,> 4 mM (inactive)
5,CC(=O)Nc1cccc(N2C(=O)CCC2=O)c1,> 4 mM (inactive)
6,Cc1c(-c2ccccc2)[n+](=O)c(-c2ccco2)c(C)n1[O-],> 4 mM (inactive)
7,CCNC(=O)CC[C@H](N)C(=O)O,> 4 mM (inactive)
8,O=C1NC(=O)C(C(C[N+](=O)[O-])c2ccc(O)cc2)C(=O)N1 (centres undefined),> 4 mM (inactive)
9,COc1ccccc1-c1nc(=S)[nH][nH]1,> 4 mM (inactive)
10,CCc1sc(C(=O)NC)cc1Br,> 4 mM (inactive)
11,O=C1CSC(=NC(=O)c2ccccc2)N1,> 4 mM (inactive)
12,O=C1NNC(=O)C2C3c4ccccc4C(c4ccccc43)C12 (centres undefined),> 4 mM (inactive)
13,O=C(Nc1ccc2c(c1)OCO2)c1ccc(=O)[nH]n1,> 4 mM (inactive)
14,Nc1oncc1-c1ccccn1,> 4 mM (inactive)
15,N#Cc1cc(-c2ccccc2)oc1N,> 4 mM (inactive)
16,O=C1CN(C(=O)c2ccccc2)c2ccccc2N1,> 4 mM (inactive)
17,CCCCN1C(=O)C2CC/C(=N/O)CC2C1=O (centres undefined),> 4 mM (inactive)
18,Nc1ccc(CCC(=O)O)cc1,> 4 mM (inactive)
19,Cn1c(=O)n(CC(=O)Nc2cccnc2)c2ccccc21,> 4 mM (inactive)
